The target in experiment [1] is T1, B1R receptor of rats (rB1R) (Rattus norvegicus, UniProt P97583).
T1 construct: host or cells: CHO K1 cells
T1 sequence (P97583 1-337): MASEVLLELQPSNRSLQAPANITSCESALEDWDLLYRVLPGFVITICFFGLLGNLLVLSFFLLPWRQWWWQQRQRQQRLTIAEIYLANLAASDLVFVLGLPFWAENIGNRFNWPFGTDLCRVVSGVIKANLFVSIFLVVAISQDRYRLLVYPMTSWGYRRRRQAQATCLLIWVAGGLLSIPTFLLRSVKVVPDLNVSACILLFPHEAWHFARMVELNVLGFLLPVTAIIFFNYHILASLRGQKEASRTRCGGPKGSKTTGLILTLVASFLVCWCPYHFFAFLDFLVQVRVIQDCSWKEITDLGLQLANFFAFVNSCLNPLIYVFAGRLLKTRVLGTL
In words: FLIPR Ca2+ assay on rat bradykinin 1 receptor (CHO K1 rB1R cells). Type of experiment: cell-based. The following applies: test substance 10 μM; CHO K1 cells with B1R gene of rats; agonist Des-Arg9-bradykinin 100 nM; compared to maximum achievable inhibition. As for the experimental part: (§1) The agonistic or antagonistic action of compounds can be quantified on the bradykinin 1 receptor (B1R) of humans and rats with ectopically expressing cell lines (CHO K1 cells) and with the aid of a Ca^2+-sensitive dye (Fluo-4) in the fluorescent imaging plate reader (FLIPR). The figure in percent activation refers to the Ca^2+ signal after addition of Lys-Des-Arg^9-bradykinin (0.5 nM) and Des-Arg^9-bradykinin (100 nM). Antagonists result in a suppression of the Ca^2+ inflow after the addition of the agonist. Percent inhibition values are given in comparison to the maximum achievable inhibition.
(§2) The agonistic or antagonistic action of substances can be determined on the bradykinin 1 receptor (B1R) of humans and rats by means of the following assay.
(§3) According to this assay the Ca^2+ inflow through the channel is quantified by means of a Ca^2+-sensitive dye (Fluo-4 type, Molecular Probes Europe BV, Leiden, Netherlands), in a Fluorescent Imaging Plate Reader (FLIPR, Molecular Devices, Sunnyvale, USA). Method:
(§4) Chinese hamster ovary cells (CHO K1 cells) are used, which are stably transfected with the human B1R gene (hB1R cells, Euroscreen s.a., Gosselies, Belgium), or with the B1R gene of rats (rB1R cells, Axxam, Milan, Italy). For functional investigations these cells are plated out on black 96-well plates with a clear floor (BD Biosciences, Heidelberg, Germany) in a density of 20,000/25,000 cells/well. The cells are incubated overnight with 10 vol. % FBS (foetal bovine serum, Gibco Invitrogen GmbH, Karlsruhe, Germany) at 37° C. and 5% CO2 in a culture medium (hB1R cells: Nutrient Mixture Ham's F12, Gibco Invitrogen GmbH, Karlsruhe, Germany; rB1R cells: D-MEM/F12, Gibco Invitrogen GmbH, Karlsruhe, Germany). The following day the cells are charged for 60 minutes at 37° C. with 2.13 μM Fluo-4 (Molecular Probes Europe BV, Leiden, Netherlands) in HBSS buffer (Hank's buffered saline solution, Gibco Invitrogen GmbH, Karlsruhe, Germany) together with […] (Sigma-Aldrich, Taufkirchen, Germany) and 10 mM HEPES (Sigma-Aldrich, Taufkirchen, Germany).
(§5) The plates are then washed twice with HBSS buffer and HBSS buffer is added which additionally contains 0.1% BSA (bovine serum albumin; Sigma-Aldrich, Taufkirchen, Germany), 5.6 mM glucose and 0.05% gelatin (Merck KGaA, Darmstadt, Germany). After further incubation for 20 minutes at room temperature the plates are used for the Ca^2+ measurement in the FLIPR. The Ca^2+-dependent fluorescence is measured both before and after the addition of substances (λex=488 nm, λem=540 nm). The quantification is carried out by measuring the highest fluorescence intensity (FC, fluorescence counts) over time.
(§6) The FLIPR protocol consists of two substance additions. First of all test substances (10 μM) are pipetted onto the cells and the Ca^2+ inflow is compared with the control (hB1R: Lys-Des-Arg9-bradykinin 0.5 nM; rB1R: Des-Arg9-bradykinin 100 nM). This gives the result in percent activation referred to the Ca^2+ signal after addition of Lys-Des-Arg9-bradykinin (0.5 nM), bzw. Des-Arg9-bradykinin (100 nM). After 10 minutes' incubation 0.5 nM Lys-Des-Arg9-bradykinin (hB1R) and 100 nM Des-Arg^9-bradykinin (rB1R) are applied and the inflow of Ca^2+ is likewise determined. Antagonists lead to a suppression of the Ca^2+ inflow. The percent inhibition compared to the maximum achievable inhibition is calculated. The compounds show a good activity on both human and rat receptors.
(§7) The agonistic and antagonistic action of the compounds according to the invention on the bradykinin 1 receptor (B1R) of humans and rats were determined as described above. Antagonists lead to a suppression of the Ca^2+ inflow. The % inhibition compared to the maximum achievable inhibition was calculated.

Experiment [2] has as its target T2, human B1R receptor (hB1R) (Homo sapiens, UniProt P46663).
T2 construct: host or cells: CHO K1 cells
T2 sequence (P46663 1-353): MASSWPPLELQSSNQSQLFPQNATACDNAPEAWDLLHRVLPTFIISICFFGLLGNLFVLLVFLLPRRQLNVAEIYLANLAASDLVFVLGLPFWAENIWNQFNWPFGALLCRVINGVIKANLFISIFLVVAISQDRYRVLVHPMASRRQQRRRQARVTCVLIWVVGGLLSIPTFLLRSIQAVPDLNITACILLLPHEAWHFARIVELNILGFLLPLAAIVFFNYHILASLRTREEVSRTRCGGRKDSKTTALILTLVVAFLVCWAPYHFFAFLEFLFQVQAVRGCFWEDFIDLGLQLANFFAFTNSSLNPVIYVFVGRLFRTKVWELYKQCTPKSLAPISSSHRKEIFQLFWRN
Put plainly: FLIPR Ca2+ assay on human bradykinin 1 receptor (CHO K1 hB1R cells). Type of experiment: cell-based. The following applies: test substance 10 μM; CHO K1 cells with human B1R gene; agonist Lys-Des-Arg9-bradykinin 0.5 nM; compared to maximum achievable inhibition. The procedure: as §1, §2, §3, §4, §5, §6, §7

These results are taken from patent publication US8263598B2, “Substituted sulfonamide compounds” (Gruenenthal GmbH, priority 2008, dated 2012).

What is called inhibition is the drop in the measured response relative to a control, in per cent. With `COc1cc(C)c(S(=O)(=O)N(CCOCC(=O)N2CCn3cccc3C2c2cccnc2)Cc2ccccc2)c(C)c1C` (stereo not drawn) [Example 41, N-benzyl-4-methoxy-2,3,6-trimethyl-N-(2-(2-oxo-2-(1-(pyridin-3-yl)-3,4-dihydropyrrolo[1,2-a]pyrazin-2(1H)-yl)ethoxy)ethyl)benzenesulfonamide], the inhibition at 10 µM came to 96% in experiment [1] and 57% in experiment [2].

Take `COc1cc(C)c(S(=O)(=O)N(CCOCC(=O)N2CCn3c(CN4CCCCC4)ccc3C2c2ccccc2)Cc2ccccc2)c(C)c1` (stereo not drawn) [Example 128, N-benzyl-4-methoxy-2,6-dimethyl-N-(2-(2-oxo-2-(1-phenyl-6-(piperidin-1-ylmethyl)-3,4-dihydropyrrolo[1,2-a]pyrazin-2(1H)-yl)ethoxy)ethyl)benzene-sulfonamide]: the inhibition at 10 µM came to 103% in experiment [1] and 101% in experiment [2].

`COc1cc(C)c(S(=O)(=O)N(CCOCC(=O)N2CCn3cccc3C2c2ccccc2)Cc2ccccc2)c(C)c1` (stereo not drawn) [Example 48, N-benzyl-4-methoxy-2,6-dimethyl-N-(2-(2-oxo-2-(1-phenyl-3,4-dihydropyrrolo[1,2-a]pyrazin-2(1H)-yl)ethoxy)ethyl)benzenesulfonamide]: the inhibition at 10 µM in experiment [1] came out at 98%; in experiment [2], 54%.

For the compound `CCCCC1c2ccc(CN(C)C)n2CCN1C(=O)COCCN(C)S(=O)(=O)c1cc(C)c(OC)c(C)c1C` (stereo not drawn) [Example 111, N-(2-(2-(1-butyl-6-((dimethylamino)methyl)-3,4-dihydropyrrolo[1,2-a]pyrazin-2(1H)-yl)-2-oxoethoxy)ethyl)-4-methoxy-N,2,3,5-tetramethylbenzene-sulfonamide], the inhibition at 10 µM in experiment [1] and in experiment [2] was 100% in each case.

Turning to `COc1c(C)cc(S(=O)(=O)N(C)CCOCC(=O)N2CCn3cccc3C2c2ccccc2)c(C)c1C` (stereo not drawn) [Example 32, 4-methoxy-N,2,3,5-tetramethyl-N-(2-(2-oxo-2-(1-phenyl-3,4-dihydropyrrolo[1,2-a]pyrazin-2(1H)-yl)ethoxy)ethyl)benzenesulfonamide], the inhibition at 10 µM in experiment [1] worked out at 99%; in experiment [2], 78%.

Turning to `CCC1c2ccc(C)n2CCN1C(=O)COCCN(CC(C)C)S(=O)(=O)c1c(C)cc(OC)c(C)c1C` (stereo not drawn) [Example 103, N-(2-(2-(1-ethyl-6-methyl-3,4-dihydropyrrolo[1,2-a]pyrazin-2(1H)-yl)-2-oxoethoxy)ethyl)-N-isobutyl-4-methoxy-2,3,6-trimethylbenzenesulfonamide], the inhibition at 10 µM stood at 102% in experiment [1] and 101% in experiment [2].

Consider `COc1c(C)cc(S(=O)(=O)N(C)CCOCC(=O)N2CCn3cccc3C2c2cccc(F)c2)c(C)c1C` (stereo not drawn) [Example 35, N-(2-(2-(1-(3-fluorophenyl)-3,4-dihydropyrrolo[1,2-a]pyrazin-2(1H)-yl)-2-oxoethoxy)ethyl)-4-methoxy-N,2,3,5-tetramethylbenzenesulfonamide], for which the inhibition at 10 µM in experiment [1] came to 48%; in experiment [2] it was 81%.

In the case of `CCC1c2cccn2CCN1C(=O)COCCN(C)S(=O)(=O)c1c(C)cc(OC)c(C)c1C` (stereo not drawn) [Example 152, N-(2-(2-(1-ethyl-3,4-dihydropyrrolo[1,2-a]pyrazin-2(1H)-yl)-2-oxoethoxy)ethyl)-4-methoxy-N,2,3,6-tetramethylbenzenesulfonamide], the inhibition at 10 µM in experiment [1] and in experiment [2] was 102% throughout.

Take `COc1c(C)cc(S(=O)(=O)N(C)CCOCC(=O)N2CCn3c(CN4CCOCC4)ccc3C2c2ccccc2)c(C)c1C` (stereo not drawn) [Example 108, 4-methoxy-N,2,3,5-tetramethyl-N-(2-(2-(6-(morpholinomethyl)-1-phenyl-3,4-dihydropyrrolo[1,2-a]pyrazin-2(1H)-yl)-2-oxoethoxy)ethyl)benzenesulfonamide]: the inhibition at 10 µM in experiment [1] and in experiment [2] was 102% throughout.

In the case of `COc1ccc(C2c3cccn3CCN2C(=O)COCCN(Cc2ccccc2)S(=O)(=O)c2c(C)cc(OC)cc2C)cc1` (stereo not drawn) [Example 47, N-benzyl-4-methoxy-N-(2-(2-(1-(4-methoxyphenyl)-3,4-dihydropyrrolo[1,2-a]pyrazin-2(1H)-yl)-2-oxoethoxy)ethyl)-2,6-dimethylbenzenesulfonamide], the inhibition at 10 µM in experiment [1] was determined as 100%; in experiment [2], 42%.

As to `COc1cc(C)c(S(=O)(=O)N(C)CCOCC(=O)N2CCn3c(CN(C)C)ccc3C2c2cccs2)c(C)c1` (stereo not drawn) [Example 17, N-(2-(2-(6-((dimethylamino)methyl)-1-(thiophen-2-yl)-3,4-dihydropyrrolo[1,2-a]pyrazin-2(1H)-yl)-2-oxoethoxy)ethyl)-4-methoxy-N,2,6-trimethylbenzene-sulfonamide], the inhibition at 10 µM in experiment [1] and in experiment [2] was 102% throughout.

As for `CCC1c2cccn2CCN1C(=O)COCCN(CC(C)C)S(=O)(=O)c1c(C)cc(OC)c(C)c1C` (stereo not drawn) [Example 100, N-(2-(2-(1-ethyl-3,4-dihydropyrrolo[1,2-a]pyrazin-2(1H)-yl)-2-oxoethoxy)ethyl)-N-isobutyl-4-methoxy-2,3,6-trimethylbenzenesulfonamide], the inhibition at 10 µM in experiment [1] turned out to be 103%; in experiment [2], 98%.

Regarding `COc1cc(C)c(S(=O)(=O)N(CCOCC(=O)N2CCn3cccc3C2C)Cc2ccccc2)c(C)c1` (stereo not drawn) [Example 45, N-benzyl-4-methoxy-2,6-dimethyl-N-(2-(2-(1-methyl-3,4-dihydropyrrolo[1,2-a]pyrazin-2(1H)-yl)-2-oxoethoxy)ethyl)benzenesulfonamide], the inhibition at 10 µM stood at 99% in experiment [1] and 83% in experiment [2].

Turning to `COc1cc(C)c(S(=O)(=O)N(CCOCC(=O)N2CCn3ccnc3C2)CC(C)C)c(C)c1C` [Example 21, N-(2-(2-(5,6-dihydroimidazo[1,2-a]pyrazin-7(8H)-yl)-2-oxoethoxy)ethyl)-N-isobutyl-4-methoxy-2,3,6-trimethylbenzenesulfonamide], the inhibition at 10 µM in experiment [1] amounted to 100%; in experiment [2], 31%.

On to `COc1ccc(C2c3cccn3CCN2C(=O)COCCN(C)S(=O)(=O)c2c(C)cc(C)cc2C)cc1` (stereo not drawn) [Example 69, N-(2-(2-(1-(4-methoxyphenyl)-3,4-dihydropyrrolo[1,2-a]pyrazin-2(1H)-yl)-2-oxoethoxy)ethyl)-N,2,4,6-tetramethylbenzenesulfonamide], for which the inhibition at 10 µM in experiment [1] amounted to 100%; in experiment [2] it was 101%.
